Results on one compound are retold here after US10111822B2, “External dermal composition for anti-ageing and method for producing the same” (Hayashibara Co., Ltd., priority 2012, dated 2018).

What all share (format): cell-based, human
One assay relates to Dickkopf-1 (DKK1). The experiment in a line: Production of DKK1 in NHDF cells (ELISA). As to conditions: for DKK1 Production level, First day: n=3, control 0.115 ± 0.012; for DKK1 Production level, Third day: n=3, control 0.217 ± 0.021. The procedure:
NHDF Cells, which had been diluted with a culture medium to give a cell density of 1×10^4 cells/well, were inoculated to 96-well plates. At 24 hours after the inoculation, the supernatant in each well of the plates was removed, followed by adding ascorbic acid 2-glucoside to each well of the plates to give a final concentration of 0.5, 1, 2, 4, or 8 mM. As a control, a cell culture system with no addition of ascorbic acid 2-glucoside was provided. At the first and third days of culturing after the addition of ascorbic acid 2-glucoside, the supernatant in each well of the plates was collected and quantified (n=3) for DKK1 with “RayBio”, a product name of an ELISA for DKK1 assay, commercialized by RayBiotech Inc., Georgia, USA. Statistical analysis of the data was performed by t-test (see “Kiso-Tokeigaku (Basic Statistics) III Statistics of Natural Science”, page 187, 2008, edited by University of Tokyo Press).
In general terms: ELISA stands for enzyme-linked immunosorbent assay.

For the next assay, the system named is glutathione. Kind of assay: Production level of glutathione in A431 cells. The note with it: 1 mM, 24 h, control = 100%. The procedure:
To Dulbecco's MEM medium, containing 10% v/v calf fetal serum and an antibiotic (abbreviated as “D-MEM”, hereinafter), were added ascorbic acid 2-glucoside, a reagent grade specimen commercialized by Hayashibara Co., Ltd., Okayama, Japan, or L-ascorbic acid, a special reagent grade specimen commercialized by Wako Pure Chemical Industries, Ltd., Tokyo, Japan, […]
Continuously-cultivated A431 cells in D-MEM medium were collected, resuspended in D-MEM medium, inoculated to culture plates with 10 cm in diameter (φ) in an amount of 1×10^6 cells/10 mL/plate, and cultured for 24 hours. Thereafter, the culture supernatants were removed by sucking, and the remaining cells were added with any of the test solutions in an amount of 10 mL/plate and cultured for another 24 hours. As a control, cells were added with only D-MEM medium in an amount of 10 mL/plate and cultured for 24 hours. To each plate, which had been removed its culture supernatant, was added ice-chilled Dulbecco's PBS (−) commercialized by Nissui Pharmaceutical Co., Ltd., Tokyo, Japan, to wash cells, which were then collected with a scraper. Glutathione was quantified with “Glutathione Assay Kit”, a commercially available glutathione assay kit commercialized by BioVision, Inc., San Francisco, USA. In this experiment, the control and test solutions were respectively assayed by using three plates respectively, and the data were averaged for obtaining a glutathione production level for each plate. A5% v/v CO2 incubator was used for culturing A431 cells in any case. Relative values of test samples were determined with the proviso that the production levels of reduced glutathione and total glutathione levels in A431 cells that had been cultured with only D-MEM medium were respectively regarded as 100%, and the results are in Table 4.

Another assay relates to occludin. Kind of assay: TJ-related protein occludin in NHEK cells (Western). As to conditions: 3 days, CaCl2 positive control = 100%, no addition 63%. The procedure:
(§1) The following experiment was conducted to examine the effect of ascorbic acid 2-glucoside on the production of TJ-related proteins that constitute cell-cell adhesion structures by focusing on occludin and ZO-1 that are focused on as TJ-related proteins known to exist in a granular layer of epidermis: As a model for typical normal human epidermal cells, NHEK cells were suspended in EpiLife medium (pH 7.4); inoculated to 12-well microplates at a cell density of 1×10^5 cells/well; cultured overnight under the conditions of 37° C. and 5% v/v CO2; and further cultured for three days under the conditions of 37° C. and 5% v/v CO2 after adding either CaCl2 as a positive control to each well to give a final concentration of 0.5 mM, or “AA2G”, a product name of a particulate composition containing anhydrous crystalline ascorbic acid 2-glucoside, commercialized by Hayashibara Co., Ltd., Okayama, Japan, to give a final concentration of 0.5 or 1 mM. […] A sample of 20 μg protein for each lane per each cell extract in respective wells was applied to sodium dodecyl sulfate polyacrylamide gel electrophoresis (SDS-PAGE) with 10% w/v SDS containing DTT, followed by assaying the concentration of occludin or ZO-1 in each cell extract with “Luminate Western HRP Substrates”, a product name of a premixed, ready-to-use chemiluminescent detection reagent using an internal standard “α-Tubulin”, commercialized by Merck KGaA, Darmstadt, Germany, wherein there were used “F-11”, a product name of an anti-occludin mouse monoclonal antibody, commercialized by Santa Cruz Biotechnology, Inc., Texas, USA, or “ZO1-1A12”, a product name of a ZO-1 mouse monoclonal antibody, commercialized by Invitrogen Corporation, Calif., USA, was used as a first antibody; and “PO447”, a product name of a horseradish peroxidase (HRPO) labeled anti-mouse IgG, commercialized by DAKO Japan Inc., Tokyo, Japan, or “PO448”, a product name of an HRPO-labeled anti-rabbit IgG, commercialized by DAKO Japan Inc., Tokyo, Japan, as a secondary antibody. […]

For another assay, the system named is ZO-1. The experiment in a line: TJ-related protein ZO-1 in NHEK cells (Western). As to conditions: 3 days, CaCl2 positive control = 100%, no addition 38%. The procedure: as §1

Molecules are shown by their SMILES.

Turning to `O=C1O[C@H]([C@@H](O)CO)C(O)=C1O[C@H]1O[C@H](CO)[C@@H](O)[C@H](O)[C@H]1O` [ascorbic acid 2-glucoside, 2-O-α-D-glucosyl-L-ascorbic acid], the “DKK1 Production level, First day” value with Dickkopf-1 (DKK1) (0.5 mmol/L) is recorded as 0.117 ± 0.018 ng/mL; in the assay on Dickkopf-1 (DKK1) (1 mmol/L) it was 0.129 ± 0.017 ng/mL; with Dickkopf-1 (DKK1) (2 mmol/L) it was 0.149 ± 0.037 ng/mL; in the assay with Dickkopf-1 (DKK1) (4 mmol/L) it was 0.146 ± 0.016 ng/mL; with Dickkopf-1 (DKK1) (8 mmol/L), 0.179 ± 0.032 ng/mL. The “DKK1 Production level, Third day” value in the assay on Dickkopf-1 (DKK1) (0.5 mmol/L) amounted to 0.317 ± 0.035 ng/mL; with Dickkopf-1 (DKK1) (1 mmol/L), 0.315 ± 0.042 ng/mL; with Dickkopf-1 (DKK1) (2 mmol/L), 0.339 ± 0.030 ng/mL; in the assay with Dickkopf-1 (DKK1) (4 mmol/L), 0.392 ± 0.014 ng/mL; in the assay on Dickkopf-1 (DKK1) (8 mmol/L), 0.413 ± 0.033 ng/mL. The same compound returned a Total glutathione with glutathione of 106%. Also, the figures for the “Occludin concentration in cell extract” value with occludin (0.5 mM) and in the assay on occludin (1 mM) were 78% and 85%, respectively. Moreover, the “ZO-1 Concentration in cell extract” value with ZO-1 (0.5 mM) is listed as 72%; in the assay with ZO-1 (1 mM), 92%.
